Data set [1] has as its target CYP 2D6 (Homo sapiens, UniProt P10635). Description: CYP inhibition 2D6. Format: in vitro ADME. The text has this: (§1) Supplement jciinsight-9-173646-s083.xlsx, sheet "Supplemental Table S.2." | column: HOSU-53
The nature of data set [2]: HOSU-53 plasma exposure in MOLM-13 tumor-bearing mice. To be noted: per mouse; for AUC: NCG, mouse, plasma, po, read-out: HOSU-53 AUCall. It is filed as in vivo, NCG mice. As to the method:
Male 8- to 12-week-old NCG mice were engrafted with 1 × 10^5 cells via tail vein i.v. injection. […] Figure 3B and Figure 4, A and B, share the same vehicle group. page 6: Plasma samples were obtained following appropriate dosing administration and saved in the -80°C freezer till the time of analysis. Analyses by LC-MS/MS followed sample extraction by protein precipitation and separation by Ultra Performance Liquid Chromatography (UPLC, Waters Corporation, MA, USA) using a C18 column, 1.7um, 2.1x50mm, Mobile Phase A: 5:95:0.1 (v:v:v) Acetonitrile:Water:Formic Acid, Mobile Phase B: 50:50:0.1 (v:v:v) Methanol:Acetonitrile:Formic Acid. MS/MS analyses were performed on an API-6500 (Absciex MA, USA) in positive mode using an electrospray source at 550°C. The internal standard was d4-AEA monitored at 352.2 and 66.0 m/z transitions and the target analyte, HOSU-53, was monitored at 416.5 and 331.1 m/z transitions. The assay was qualified between 10-5,000 ng/ml HOSU53 to be within ±20% for QCs above the LLOQ in this range and ±25% at the LLOQ. DHO concentration quantification in mouse plasma samples. Plasma samples were obtained following appropriate dosing administration and saved in the -80°C freezer till the time of analysis. Analyses by LC-MS/MS followed sample extraction by protein precipitation and separation by Ultra Performance Liquid Chromatography (UPLC, Waters Corporation, MA, USA) using a Phenomenex Aqua C18 100x4.6mm, 3uM, […], Mobile Phase A: 100:0.1 (v:v) Water:Formic Acid, Mobile Phase B: 100:0.1 (v:v) Methanol:Formic Acid. MS/MS analyses were performed on an API-4000 (Absciex MA, USA) in negative mode using an electrospray source at 550°C. The internal standard was labeled 13C14_L-Dihydroorotic Acid monitored at 161.3 and 117.1 m/z transitions and the target analyte, L-Dihydroorotic Acid (DHO), was monitored at 157.0 and 70.0 m/z transitions. The assay was qualified between 10.0-30,000 ng/ml DHO to be within ±20% for QCs above the LLOQ in this range and ±25% at the LLOQ.

Data set [3] deals with MV4-11 AML target cells. Kind of data set: Murine BMDM phagocytosis of MV4-11 cells (ADCP). It is filed as cell-based, human. As to the method:
Supplemental Figure S.9. A) Murine bone marrow derived macrophages (BMDM, effector cells) were generated from harvested bone marrow cells grown in the presence of 20ng/ml murine M-CSF for 7-8 days where media was refreshed on day 3. After BMDM generation, they were collected and stained […]
with CFDA-SE (green). […]
and stained with CTV (blue). Green BMDM cells were then co-cultured for 4 h with blue MV4-11 AML cells in the presence of 10 µg/ml isotype IgG1 or anti-CD47 antibody at 1:1 E:T ratio in an ultra-low binding tissue culture plate. Cells were then collected and analyzed using flow cytometry to quantify percentage of phagocytosed cells indicated by viable F4/80+CFDA+CTV+ cells (n=6). Adjusted FDR p-value *<0.05, ***≤0.0001, nonsignificant (ns) ≥0.05. B) Representative florescent microscopy images were taken using 20x objective to visualize antibody dependent cellular phagocytosis (ADCP). Prior to imaging, the wells were rinsed three time to remove MV4-11 target cells in suspension and allow the imaging of adherent effector cells (green BMDM) and residual blue MV4 -11 target cells. The outlined area in the red box is manually enlarged.
(1 picture or pasted object on this page, not shown here)

Data set [4] can be described thus: HOSU-53 plasma exposure in MOLM-13 tumor-bearing mice. Format: in vivo, NCG mice. To be noted: 10 mpk PO, female mice, per mouse, 10 mg/kg.
Data set [5] addresses CYP 2B6 (Homo sapiens, UniProt P20813). Kind of data set: CYP inhibition 2B6. Format: in vitro ADME.
Description: as §1

The values below come from article PMC11141866, “Pyrimidine depletion enhances targeted and immune therapy combinations in acute myeloid leukemia” (JCI Insight, 2024).

The structures appear in SMILES notation. Where “and” joins values, the source holds several entries; their conditions need not be identical. Identical values can stand only once. Like-named read-outs stand apart in the source and are kept apart here.

Sequence of CYP 2B6 (P20813 whole entry): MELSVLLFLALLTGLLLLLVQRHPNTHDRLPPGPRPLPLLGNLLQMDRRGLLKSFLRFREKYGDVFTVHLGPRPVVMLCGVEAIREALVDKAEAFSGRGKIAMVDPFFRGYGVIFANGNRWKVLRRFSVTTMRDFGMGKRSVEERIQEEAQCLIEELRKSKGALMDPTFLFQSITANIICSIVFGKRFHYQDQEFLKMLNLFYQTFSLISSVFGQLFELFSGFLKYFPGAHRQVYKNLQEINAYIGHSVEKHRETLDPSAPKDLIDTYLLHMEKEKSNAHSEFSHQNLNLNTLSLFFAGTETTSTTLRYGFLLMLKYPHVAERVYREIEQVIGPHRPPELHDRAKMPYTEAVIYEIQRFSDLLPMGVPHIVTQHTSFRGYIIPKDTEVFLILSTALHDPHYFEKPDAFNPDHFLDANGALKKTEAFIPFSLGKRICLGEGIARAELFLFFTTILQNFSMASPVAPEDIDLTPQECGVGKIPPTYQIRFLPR
Sequence of CYP 2D6 (P10635 whole entry): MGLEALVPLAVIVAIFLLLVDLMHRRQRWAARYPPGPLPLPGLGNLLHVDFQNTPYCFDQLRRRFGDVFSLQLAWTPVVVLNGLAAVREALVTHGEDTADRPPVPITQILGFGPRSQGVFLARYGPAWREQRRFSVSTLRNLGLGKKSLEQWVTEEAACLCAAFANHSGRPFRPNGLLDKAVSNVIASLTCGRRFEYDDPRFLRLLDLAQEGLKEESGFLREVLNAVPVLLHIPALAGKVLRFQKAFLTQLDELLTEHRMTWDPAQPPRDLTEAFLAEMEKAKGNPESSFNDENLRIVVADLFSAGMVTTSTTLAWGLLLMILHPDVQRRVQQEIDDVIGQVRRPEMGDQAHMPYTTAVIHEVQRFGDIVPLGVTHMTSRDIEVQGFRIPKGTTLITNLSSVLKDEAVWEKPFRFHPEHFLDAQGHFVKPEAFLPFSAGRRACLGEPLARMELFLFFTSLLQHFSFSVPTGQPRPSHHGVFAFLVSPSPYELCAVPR

Consider `CCCCOc1cccc(-c2ccc(-c3cc(C(=O)O)c4cc(F)ccc4n3)cc2)c1` [HOSU-53], for which the IC50 (in general, the concentration needed to halve the response being measured) in data set [1] stood at 30.1 µM; in data set [5], 11.2 µM. Moreover, the “HOSU-53 AUCall” value is 915.984 µM·h and 1069.99 µM·h in data set [2] (Day 1, 4 mpk PO, male mice, 4 mg/kg); 1989.31 µM·h and 1940.99 µM·h in data set [2] (Day 1, 10 mpk PO, male mice, 10 mg/kg); 3244.97 µM·h and 3430.6 µM·h in data set [2] (Day 1, 20 mpk PO, male mice, 20 mg/kg); 5214.04 µM·h and 4142.06 µM·h in data set [2] (Day 1, 30 mpk PO, male mice, 30 mg/kg); 2230.22 µM·h and 2019.88 µM·h in data set [2] (Day 14, 4 mpk PO, male mice, 4 mg/kg); 3666.3 µM·h and 3989.64 µM·h in data set [2] (Day 14, 10 mpk PO, male mice, 10 mg/kg). The “HOSU-53 AUCall” value in data set [2] (Day 14, 20 mpk PO, male mice, 20 mg/kg) was 6180.8 µM·h and 5557.2 µM·h; in data set [2] (Day 14, 30 mpk PO, male mice, 30 mg/kg) it was 7551.75 µM·h and 6154.9 µM·h; in data set [4] (Day 1), 2462.63 µM·h and 1961.3 µM·h; in data set [4] (Day 14) it was 3818.57 µM·h and 3432.74 µM·h. In addition, the AUC was found to be 2830 µM·h in data set [2] (female, 10 mg/kg, Day 1, 10 mpk PO, female mice); 3980 µM·h in data set [2] (female, 10 mg/kg, Day 14, 10 mpk PO, female mice); 780 µM·h in data set [2] (male, 4 mg/kg, Day 1, 4 mpk PO, male mice); 1930 µM·h in data set [2] (male, 4 mg/kg, Day 14, 4 mpk PO, male mice); 1890 µM·h in data set [2] (male, 10 mg/kg, Day 1, 10 mpk PO, male mice); 3860 µM·h in data set [2] (male, 10 mg/kg, Day 14, 10 mpk PO, male mice). Moreover, the AUC in data set [2] (male, 20 mg/kg, Day 1, 20 mpk PO, male mice) was 3670 µM·h; in data set [2] (male, 20 mg/kg, Day 14, 20 mpk PO, male mice), 5090 µM·h; in data set [2] (male, 30 mg/kg, Day 1, 30 mpk PO, male mice), 4470 µM·h; in data set [2] (male, 30 mg/kg, Day 14, 30 mpk PO, male mice) it was 6660 µM·h. Also, the “CDFA+F4/80+CTV+” value in data set [3] (25nM HOSU53 + IgG1, six replicate columns, DMSO + IgG1 control 3.5-16.7) was 31.4 and 44.6 and 23.1 and 30.2 and 23.9 and 17.1. Further, the “phagocytosis of AML cells by murine BMDM in presence of B6H12 antibody” value in data set [3] (72-hour HOSU-53 (10nM) pretreatment of MV4-11, 10 µg/ml anti-CD47) is listed as “greatly enhanced phagocytosis”.
